Test results: patent publication US11952364B2, “TRK inhibitors useful as anticancer drugs” (TYLIGAND BIOSCIENCE (SHANGHAI) LIMITED, priority 2018, dated 2024)
Like-named read-outs stand apart in the source and are kept apart here.

Test system: KM12 cells
Assay: Proliferation of KM12 cells (CellTiter-Glo)
Type: cell-based, human
Settings: Homo sapiens
Description: KM12 is a human colon cancer cell line in which NTRK1 is highly expressed, and gene fusion occurs with TPM3 to form TPM3-NTRK1. • [Test method]: Promega's CellTiter-Glo® Luminescent Cell Viability Assay kit was used to evaluate the inhibitory activity of the compounds on the proliferation of KM12 cells. • [Instrument]: Spectramax M3 multifunctional microplate reader from Molecular Devices. • [Test materials]: KM12 cell line (ATCC, item number CRL-12496), 96-well transparent flat-bottomed black-walled cell culture plate (Corning, item number #3603), RPMI-1640 media (GE, cat #SH30027.01), Fetal Bovine Serum FBS (Thermo Fisher, cat #10099-141), CellTiter-Glo® Luminescent Cell Viability Assay Kit (Promega, cat #G7572), PBS (Solarbio, cat #P1020), Trypsin (Thermo Fisher, cat #25200072), DMSO (Sigma, cat #D2650). • [Experimental procedure]: When resuscitating KM12 cells, the freezing tube was quickly shaken in a 37° C. water bath to melt within 1 minute. The thawed cell suspension was mixed uniformly with RPMI1640 medium containing 10% FBS, centrifuged at 1000 rpm for 5 minutes, and the supernatant discarded. 5 mL of complete medium (RPMI1640 medium with 10% FBS) was taken to resuspend the cell pellets, charged into a cell culture flask with a bottom area of 25 cm^2, and incubated in a cell incubator at 37° C., 95% humidity and 5% CO2. Cells were allowed to passage when the cell confluence rate reached about 80%. For cell passage, the old medium was discarded, and the cells were washed twice with PBS, and 0.5 mL trypsin was added to digest the cells. Upon dispersing into single cells and exfoliating from the bottom of the cell culture flask, 4.5 mL of new complete medium was added to terminate the digestion. After pipetting the cell suspension evenly, 1/5 of the cell suspension was kept and added with 4 mL of new complete medium, and after pipetting evenly, the cell flask was placed in the cell incubator for further culturing. Cell plating was performed when the cell confluence rate reached about 80% again. For cell plating, 1/5 of the cell suspension was kept for further culturing as in the cell passage method, and the remaining 4/5 of the cell suspension was placed in a 15 mL centrifuge tube, detected for cell viability by Trypan blue exclusion method to ensure that cell viability was above 90%. A cell suspension with a density of 3.33×10^4 viable cells/mL was prepared with complete medium, and 90 μL of such cell suspension was added to a 96-well cell culture plate to obtain a cell density of 3000 viable cells/mL in the cell culture plate. A control group containing no cells, no compound and only complete medium (i.e. culture medium control) and a control group containing no compound but containing cells (i.e. cell control) were set. The cell plate was placed in a cell incubator overnight.
The 10 mM compound stock solution in DMSO was first serially diluted with DMSO at a dilution factor of 3.16 times, to obtain 9 concentrations, and the 10th concentration was set as DMSO control without compound. Then, PBS was used to dilute the DMSO solutions of compounds of different concentrations, at a dilution factor of 100 times, so that the DMSO concentration in the compound solution of each concentration was 1%. Finally, 10 μL of each of the above solutions was added to the corresponding cell culture plate, so that the initial compound concentration was 10 μM, with the remaining concentrations being successively diluted at a dilution factor of 3.16 times, and the DMSO content in the cell culture plate was 0.1%.
The cell plate was placed in a cell incubator and cultured for 72 hours. For endpoint detection, the CellTiter-Glo reagent was melted, and the cell plate was moved to room temperature to equilibrate for 30 minutes, added with 100 μL of CellTiter-Glo for each well, and shaken on an orbital shaker for 5 minutes to fully lyse the cells. […]

[1] = KM12, 72 h, Table 1, 72 hours, read-out: KM-12, IC50
[2] = KM12, Table 9, read-out: KM12 cell proliferation inhibitory activity (IC50)
[3] = KM12, Table 1-2, separate test, read-out: KM-12, IC50
[4] = KM12, Table 1-1, separate test, read-out: KM-12, IC50
[5] = KM12, Table 1-3, separate test, read-out: KM-12, IC50

Q: For `CCn1ncc2cc(Oc3ccc(NC(=O)c4ccc(C)n(-c5ccc(F)cc5)c4=O)cc3F)c(-c3cn[nH]c3)cc21` [Example 3, N-(3-fluoro-4-(1-ethyl-6-(1H-pyrazol-4-yl)-1H-indazol-5-yloxy)phenyl)-1-(4-fluorophenyl)-6-methyl-2-oxo-1,2-dihydmpyridine-3-carboxamide], which IC50 [1] is on record?
A: The IC50 was 16.7 nM.

Q: How did the IC50 [2] turn out when `CCOc1ccc(C(=O)Nc2ccc(Oc3cc4cnn5c4c(c3-c3cn[nH]c3)CC5)c(F)c2)c(=O)n1-c1ccc(F)cc1` [Example 32, N-(4-((5-(1H-pyrazol-4-yl)-6,7-dihydropyrrolo[3,2,1-hi]-indazol-4-yl)oxy)-3-fluorophenyl)-6-ethoxy-1-(4-fluorophenyl)-2-oxo-12-dihydropyridine-3-carboxamide] was run?
A: Its IC50 is 67 nM.

Q: How did the IC50 [2] turn out when `Cc1ccc(C(=O)Nc2ccc(Oc3cc4cnn5c4c(c3-c3cn[nH]c3)CC5)c(F)c2)c(=O)n1-c1ccc(F)cc1` [Example 31, N-(4-((5-(1H-pyrazol-4-yl)-6,7-dihydropyrrolo[3,2,1-hi]-indazol-4-yl)oxy)-3-fluorophenyl)-1-(4-fluorophenyl)-6-methyl-2-oxo-1,2-dihydropyridine-3-carboxamide] was run?
A: Its IC50 is 71 nM.

Q: `CC(C)Oc1ccc(C(=O)Nc2ccc(Oc3cc4cnn(C)c4cc3-c3cn[nH]c3)c(F)c2)c(=O)n1-c1ccc(F)cc1` [Example 16, N-(3-fluoro-4-(1-methyl-6-(1H-pyrazol-4-yl)-1H-indazol-5-yloxy)phenyl)-1-(4-fluorophenyl)-6-isopropoxy-2-oxo-1,2-dihydropyridine-3-carboxamide] was tested. Which IC50 [3] did it give?
A: The IC50 was 7 nM.

Q: `CCc1ccc(C(=O)Nc2ccc(Oc3cc4cnn(CC)c4cc3-c3cn[nH]c3)c(F)c2)c(=O)n1-c1ccc(F)cc1` [Example 18, N-(3-fluoro-4-(1-ethyl-6-(1H-pyrazol-4-yl)-1H-indazol-5-yloxy)phenyl)-1-(4-fluorophenyl)-6-ethyl-2-oxo-1,2-dihydropyridine-3-carboxamide] was tested. Which IC50 [4] did it give?
A: Its IC50 is 32 nM.

Q: Which IC50 [1] does the source give for `Cc1ccc(C(=O)Nc2ccc(Oc3cc4cnn(C(C)C)c4cc3-c3cn[nH]c3)c(F)c2)c(=O)n1-c1ccc(F)cc1` [Example 4, N-(3-fluoro-4-(1-isopropyl-6-(1H-pyrazol-4-yl)-1H-indazol-5-yloxy)phenyl)-1-(4-fluorophenyl)-6-methyl-2-oxo-1,2-dihydmpyridine-3-carboxamide] here?
A: Its IC50 is 31 nM.

Q: How did the IC50 [3] turn out when `CCOc1ccc(C(=O)Nc2ccc(Oc3cc4cnn(C)c4cc3-c3cn[nH]c3)c(F)c2)c(=O)n1-c1ccc(F)cc1` [Example 14, N-(3-fluoro-4-(1-methyl-6-(1H-pyrazol-4-yl)-1H-indazol-5-yloxy)phenyl)-1-(4-fluorophenyl)-6-ethoxy-2-oxo-12-dihydropyridine-3-carboxamide] was run?
A: The IC50 was 24 nM.

Q: Which IC50 [5] does the source give for `CCn1ncc2cc(Oc3ccc(NC(=O)c4ccc(OC(C)C)n(-c5ccc(F)cc5)c4=O)cc3F)c(-c3cn[nH]c3)cc21` [Example 26, N-(3-fluoro-4-(1-ethyl-6-(1H-pyrazol-4-yl)-1H-indazol-5-yloxy)phenyl)-1-(4-fluorophenyl)-6-isopropoxy-2-oxo-1,2-dihydropyridine-3-carboxamide] here?
A: Its IC50 is 18 nM.

Q: Which IC50 [1] does the source give for `Cn1ncc2cc(Oc3ccc(NC(=O)c4ccc(C(F)(F)F)n(-c5ccc(F)cc5)c4=O)cc3F)c(-c3cn[nH]c3)cc21` [Example 1, N-(3-fluoro-4-(1-methyl-6-(1H-pyrazol-4-yl)-1H-indazol-5-yloxy)phenyl)-1-(4-fluorophenyl)-6-trifluoromethyl-2-oxo-1,2-dihydmpyridine-3-carboxamide monomethanesulfonate] here?
A: Its IC50 is 15.6 nM.

Q: For `COc1ccc(C(=O)Nc2ccc(Oc3cc4cnn(C)c4cc3-c3cn[nH]c3)c(F)c2)c(=O)n1-c1ccc(F)cc1` [Example 12, N-(3-fluoro-4-(1-methyl-6-(1H-pyrazol-4-yl)-1H-indazol-5-yloxy)phenyl)-1-(4-fluorophenyl)-6-methoxy-2-oxo-1,2-dihydropyridine-3-carboxamide], which IC50 [4] is on record?
A: The IC50 was 16 nM.

Q: With `Cc1ccc(C(=O)Nc2ccc(Oc3cc4cnn(C)c4cc3-c3cn[nH]c3)c(F)c2)c(=O)n1-c1ccc(F)cc1` [Merestinib, reference compound] as the compound, how does the IC50 [1] read?
A: Its IC50 is 8.7 nM.

Q: And the IC50 [4]?
A: Its IC50 is 33 nM.

Q: What about the IC50 [3] of the same compound?
A: The IC50 was 59 nM.

Q: What about the IC50 [5] of the same compound?
A: Its IC50 is 27 nM.
